# Like-named read-outs stand apart in the source and are kept apart here.
# Test system: Bordetella pertussis
# Assay: microbe, parasite or virus in culture
# Format: cell-based
# Procedure: Cells were harvested by centrifugation, washed twice with NaCl 0.9% (w/v), and resuspended in fresh medium (de novo minimal CDM; see composition in Table 1) at a theoretical OD650 nm of 0.5, as calculated from the OD650 nm of the culture before harvest. 20 μl of this cell suspension were used to inoculate each well of a 96-well microtiter plate filled with 180 μl of de novo minimal CDM. Only the inner wells of the plate were used for cultures, in order to minimize evaporation, and two controls were included, in which the supplement solution was replaced with water.
# The plate was then incubated for 7 days at 35° C. in a Biotek Synergy H1 reader with constant shaking, and growth was automatically monitored every 10 minutes as OD650 nm.
# The relative growth yield and growth rate for each supplement was then averaged over the three independent repeats, and the standard deviation was calculated.
# [1] = Bordetella pertussis, 168 h, read-out: Relative yield Average, 2 mM in medium, max OD650 nm relative to water controls
# [2] = Bordetella pertussis, 168 h, read-out: Relative yield Average, 20 mM in medium, max OD650 nm relative to water controls
# [3] = Bordetella pertussis, read-out: Relative growth rate Average, 2 mM in medium, first generation, relative to water controls
# [4] = 1 mM in medium, first generation, relative to water controls
# [5] = Bordetella pertussis, read-out: Relative growth rate Average, 20 mM in medium, first generation, relative to water controls
# [6] = Bordetella pertussis, read-out: Relative growth rate Average, 0.2 mg/L in medium, first generation, relative to water controls
# [7] = Bordetella pertussis, 168 h, read-out: Relative yield Average, 1.33 mM in medium, max OD650 nm relative to water controls
# [8] = Bordetella pertussis, read-out: Relative growth rate Average, 1.33 mM in medium, first generation, relative to water controls
# [9] = 2 mM in medium, first generation, relative to water controls
# [10] = 2 mM in medium, max OD650 nm relative to water controls
# [11] = 20 mM in medium, first generation, relative to water controls
# [12] = 20 mM in medium, max OD650 nm relative to water controls
# [13] = Bordetella pertussis, 168 h, read-out: Relative yield Average, 0.1 mg/L in medium, max OD650 nm relative to water controls
# [14] = Bordetella pertussis, 168 h, read-out: Relative yield Average, 1 mg/L in medium, max OD650 nm relative to water controls
# [15] = Bordetella pertussis, read-out: Relative growth rate Average, 0.1 mg/L in medium, first generation, relative to water controls
# [16] = Bordetella pertussis, read-out: Relative growth rate Average, 1 mg/L in medium, first generation, relative to water controls
# [17] = 5 mM in medium, first generation, relative to water controls
# [18] = 5 mM in medium, max OD650 nm relative to water controls
# [19] = 50 mM in medium, first generation, relative to water controls
# [20] = 50 mM in medium, max OD650 nm relative to water controls
compound,measurement,setting,value
O=C(O)[C@@H]1CCCN1 [L-Proline],activity at 2000 µM,[1],95 to 105%
same,activity at 20000 µM,[2],> 105%
CC[C@H](C)[C@H](N)C(=O)O [L-Isoleucine],activity at 2000 µM,[1],< 95%
same,activity at 20000 µM,[2],< 95%
same,activity at 2000 µM,[3],< 95%
same,Effect on growth rate in comparison to a minimally identified medium,no concentration stated,negative effect
N[C@@H](CO)C(=O)O [L-Serine],activity at 2000 µM,[1],< 95%
same,activity at 20000 µM,[2],< 95%
same,activity at 2000 µM,[3],95 to 105%
O=C(O)CCC(=O)O [Succinic acid],activity at 2000 µM,[1],< 95%
O=C(O)CC(O)(CC(=O)O)C(=O)O [Citric acid monohydrate],activity at 2000 µM,[1],< 95%
NC(=O)c1ccc[n+]([C@@H]2O[C@H](COP(=O)([O-])OP(=O)(O)OC[C@H]3O[C@@H](n4cnc5c(N)ncnc54)[C@H](O)[C@@H]3O)[C@@H](O)[C@H]2O)c1 [NAD],Relative growth rate Average,"10 mg/L in medium, first generation, relative to water controls",100.14%
same,Relative yield Average,"10 mg/L in medium, max OD650 nm relative to water controls",100.15%
same,Relative growth rate Average,"100 mg/L in medium, first generation, relative to water controls",97.38%
same,Relative yield Average,"100 mg/L in medium, max OD650 nm relative to water controls",104.61%
Cl.N [NH4Cl],Relative growth rate Average,[4],98.56%
same,Relative yield Average,"1 mM in medium, max OD650 nm relative to water controls",104.80%
N[C@@H](Cc1ccc(O)cc1)C(=O)O [L-Tyrosine],activity at 22.1 µM,"Bordetella pertussis, 168 h, read-out: Relative yield Average, 0.0221 mM in medium, max OD650 nm relative to water controls",95 to 105%
same,activity at 221 µM,"Bordetella pertussis, 168 h, read-out: Relative yield Average, 0.221 mM in medium, max OD650 nm relative to water controls",95 to 105%
same,activity at 22.1 µM,"Bordetella pertussis, read-out: Relative growth rate Average, 0.0221 mM in medium, first generation, relative to water controls",95 to 105%
same,activity at 221 µM,"Bordetella pertussis, read-out: Relative growth rate Average, 0.221 mM in medium, first generation, relative to water controls",< 95%
CC(C)[C@H](N)C(=O)O [L-Valine],activity at 2000 µM,[1],95 to 105%
same,activity at 2000 µM,[3],< 95%
O=P([O-])([O-])O.[Na+].[Na+] [Na2HPO4],Relative growth rate Average,[4],99.98%
same,Relative growth rate Average,"10 mM in medium, first generation, relative to water controls",101.26%
OCC(O)CO [Glycerol],activity at 2000 µM,[1],95 to 105%
same,activity at 20000 µM,[2],> 105%
same,activity at 2000 µM,[3],95 to 105%
same,activity at 20000 µM,[5],< 95%
Nc1ccc(C(=O)O)cc1 [para-aminobenzoic acid],activity at 0.2 µg/mL,"Bordetella pertussis, 168 h, read-out: Relative yield Average, 0.2 mg/L in medium, max OD650 nm relative to water controls",95 to 105%
same,activity at 2 µg/mL,"Bordetella pertussis, 168 h, read-out: Relative yield Average, 2 mg/L in medium, max OD650 nm relative to water controls",95 to 105%
same,activity at 0.2 µg/mL,[6],> 105%
same,activity at 2 µg/mL,"Bordetella pertussis, read-out: Relative growth rate Average, 2 mg/L in medium, first generation, relative to water controls",95 to 105%
CC(C)C[C@H](N)C(=O)O [L-Leucine],activity at 1330 µM,[7],95 to 105%
same,activity at 1330 µM,[8],95 to 105%
Cl.NCCCC[C@H](N)C(=O)O [L-Lysine HCl],activity at 2000 µM,[1],> 105%
same,activity at 2000 µM,[3],< 95%
Cc1cc2nc3c(=O)[nH]c(=O)nc-3n(C[C@H](O)[C@H](O)[C@H](O)CO)c2cc1C [Riboflavin],activity at 0.3 µg/mL,"Bordetella pertussis, 168 h, read-out: Relative yield Average, 0.3 mg/L in medium, max OD650 nm relative to water controls",95 to 105%
same,activity at 3 µg/mL,"Bordetella pertussis, 168 h, read-out: Relative yield Average, 3 mg/L in medium, max OD650 nm relative to water controls",95 to 105%
same,activity at 0.3 µg/mL,"Bordetella pertussis, read-out: Relative growth rate Average, 0.3 mg/L in medium, first generation, relative to water controls",> 105%
same,activity at 3 µg/mL,"Bordetella pertussis, read-out: Relative growth rate Average, 3 mg/L in medium, first generation, relative to water controls",95 to 105%
O=C([O-])/C=C/C(=O)[O-].[Na+].[Na+] [Disodium Fumarate],Relative growth rate Average,[9],97.72%
same,Relative yield Average,[10],107.14%
same,Relative growth rate Average,[11],86.72%
same,Relative yield Average,[12],171.26%
Nc1ncnc2nc[nH]c12 [Adenine],activity at 0.1 µg/mL,[13],95 to 105%
same,activity at 1 µg/mL,[14],95 to 105%
same,activity at 0.1 µg/mL,[15],95 to 105%
same,activity at 1 µg/mL,[16],95 to 105%
C[N+](C)(C)CCO.[Cl-] [Choline chloride],activity at 0.6 µg/mL,"Bordetella pertussis, 168 h, read-out: Relative yield Average, 0.6 mg/L in medium, max OD650 nm relative to water controls",95 to 105%
same,activity at 6 µg/mL,"Bordetella pertussis, 168 h, read-out: Relative yield Average, 6 mg/L in medium, max OD650 nm relative to water controls",95 to 105%
same,activity at 0.6 µg/mL,"Bordetella pertussis, read-out: Relative growth rate Average, 0.6 mg/L in medium, first generation, relative to water controls",95 to 105%
same,activity at 6 µg/mL,"Bordetella pertussis, read-out: Relative growth rate Average, 6 mg/L in medium, first generation, relative to water controls",95 to 105%
O=C(O)CCCC[C@@H]1SC[C@@H]2NC(=O)N[C@@H]21 [Biotin],activity at 0.02 µg/mL,"Bordetella pertussis, read-out: Relative growth rate Average, 0.02 mg/L in medium, first generation, relative to water controls",> 105%
same,activity at 0.2 µg/mL,[6],95 to 105%
C[C@@H](O)[C@H](N)C(=O)O [L-Threonine],activity at 2000 µM,[1],95 to 105%
same,activity at 20000 µM,[2],< 95%
same,activity at 2000 µM,[3],< 95%
CSCC[C@H](N)C(=O)O [L-Methionine],activity at 20000 µM,[2],> 105%
same,activity at 2000 µM,[3],> 105%
same,activity at 20000 µM,[5],> 105%
N[C@@H](Cc1c[nH]cn1)C(=O)O [L-Histidine],activity at 2000 µM,[1],95 to 105%
same,activity at 20000 µM,[2],< 95%
same,activity at 2000 µM,[3],> 105%
same,activity at 20000 µM,[5],> 105%
N[C@@H](CC(=O)O)C(=O)O [L-Aspartate],Relative growth rate Average,"0.225 mM in medium, first generation, relative to water controls",96.87%
same,Relative yield Average,"0.225 mM in medium, max OD650 nm relative to water controls",106.30%
same,Relative growth rate Average,"2.25 mM in medium, first generation, relative to water controls",72.32%
same,Relative yield Average,"2.25 mM in medium, max OD650 nm relative to water controls",99.74%
CC(=O)[O-].[Na+] [Sodium acetate],Relative growth rate Average,[17],101.45%
same,Relative yield Average,[18],99.15%
same,Relative growth rate Average,[19],71.40%
same,Relative yield Average,[20],152.20%
O=c1cc[nH]c(=O)[nH]1 [Uracil],activity at 0.1 µg/mL,[13],95 to 105%
same,activity at 1 µg/mL,[14],101%
same,activity at 0.1 µg/mL,[15],95 to 105%
same,activity at 1 µg/mL,[16],94.8%
C[C@H](O)C(=O)[O-].[Na+] [Sodium L-Lactate],Relative growth rate Average,[17],128.73%
same,Relative yield Average,[18],100.70%
same,Relative growth rate Average,[19],103.33%
same,Relative yield Average,[20],192.99%
O=C([O-])O.[Na+] [NaHCO3],Relative yield Average,[10],102.33%
O.O=S(=O)([O-])[O-].[Mn+2] [MnSO4•H2O],Relative growth rate Average,"1.89 mg/L in medium, first generation, relative to water controls",91.27%
same,Relative yield Average,"1.89 mg/L in medium, max OD650 nm relative to water controls",109.53%
same,Relative growth rate Average,"18.9 mg/L in medium, first generation, relative to water controls",47.58%
same,Relative yield Average,"18.9 mg/L in medium, max OD650 nm relative to water controls",91.55%
O.O.O.O.O.O.[Cl-].[Cl-].[Co+2] [CoCl2•6H2O],Relative growth rate Average,"0.42 mg/L in medium, first generation, relative to water controls",93.44%
same,Relative yield Average,"0.42 mg/L in medium, max OD650 nm relative to water controls",103.04%
same,Relative growth rate Average,"4.2 mg/L in medium, first generation, relative to water controls",46.12%
same,Relative yield Average,"4.2 mg/L in medium, max OD650 nm relative to water controls",149.59%
O=C[O-].[Na+] [Sodium formate],Relative growth rate Average,[9],97.36%
same,Relative yield Average,[10],143.35%
same,Relative growth rate Average,[11],89.12%
same,Relative yield Average,[12],168.28%
NC(=O)C[C@H](N)C(=O)O [L-Asparagine],activity at 1330 µM,[7],95 to 105%
same,activity at 13300 µM,"Bordetella pertussis, 168 h, read-out: Relative yield Average, 13.3 mM in medium, max OD650 nm relative to water controls",< 95%
same,activity at 1330 µM,[8],95 to 105%
same,activity at 13300 µM,"Bordetella pertussis, read-out: Relative growth rate Average, 13.3 mM in medium, first generation, relative to water controls",95 to 105%
N[C@@H](Cc1c[nH]c2ccccc12)C(=O)O [L-Tryptophane],activity at 518 µM,"Bordetella pertussis, 168 h, read-out: Relative yield Average, 0.518 mM in medium, max OD650 nm relative to water controls",> 105%
same,activity at 5180 µM,"Bordetella pertussis, 168 h, read-out: Relative yield Average, 5.18 mM in medium, max OD650 nm relative to water controls",95 to 105%
same,activity at 518 µM,"Bordetella pertussis, read-out: Relative growth rate Average, 0.518 mM in medium, first generation, relative to water controls",95 to 105%
NC(=O)CC[C@H](N)C(=O)O [L-Glutamine],activity at 2000 µM,[1],95 to 105%
same,activity at 20000 µM,[2],> 105%
same,activity at 2000 µM,[3],95 to 105%
same,activity at 20000 µM,[5],< 95%
